# Source: PubChem BioAssay AID200 (DTP/NCI, 2004)
# Where “and” joins values, the source holds several entries; their conditions need not be identical. Equal entries are not always repeated. Inconclusive results and toxic doses are left out.
# System: B6C3F1 mice, B16 melanoma ip, median survival T/C
# Assay: NCI In Vivo Anticancer Drug Screen. Data for tumor model B16 Melanoma (intraperitoneal) in B6C3F1 mice
# Settings: endpoint: median survival time, higher = longer survival
# Method in brief: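 Mice bearing transplanted tumor were dosed with compound or vehicle, and survival was recorded. Activity is expressed as the treated-group measurement (T) divided by the vehicle control measurement (C).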
# [1] = dose: 3.12 mg/kg/injection, schedule: Q01DX009 (ip), vehicle: saline with Tween-80
# [2] = dose: 6.25 mg/kg/injection, schedule: Q01DX009 (ip), vehicle: saline with Tween-80
# [3] = dose: 12.5 mg/kg/injection, schedule: Q01DX009 (ip), vehicle: saline with Tween-80
# [4] = dose: 25.0 mg/kg/injection, schedule: Q01DX009 (ip), vehicle: saline with Tween-80
# [5] = dose: 50.0 mg/kg/injection, schedule: Q01DX009 (ip), vehicle: saline with Tween-80
# [6] = dose: 100.0 mg/kg/injection, schedule: Q01DX009 (ip), vehicle: saline with Tween-80
# [7] = dose: 200.0 mg/kg/injection, schedule: Q01DX009 (ip), vehicle: saline with Tween-80
# [8] = dose: 400.0 mg/kg/injection, schedule: Q01DX009 (ip), vehicle: saline with Tween-80
structure (smiles),measurement,setting,value
C/C=C/C=C/c1cc2cc3c(c(O)c2c(=O)[nH]1)C1(CC3)C(O)=c2c(=O)c3c(=O)cc(OC)c(=O)c=3c(=O)c2=C1O (stereo not drawn),T/C,"dose: 0.75 mg/kg/injection, schedule: Q01DX009 (ip), vehicle: Klucel (hydroxypropylcellulose) (HPC)",114 % of control and 117 % of control
same,T/C,"dose: 1.5 mg/kg/injection, schedule: Q01DX009 (ip), vehicle: Klucel (hydroxypropylcellulose) (HPC)",114 % of control and 107 % of control
same,T/C,"dose: 3.0 mg/kg/injection, schedule: Q01DX009 (ip), vehicle: Klucel (hydroxypropylcellulose) (HPC)",116 % of control
same,T/C,"dose: 6.0 mg/kg/injection, schedule: Q01DX009 (ip), vehicle: Klucel (hydroxypropylcellulose) (HPC)",115 % of control
same,T/C,"dose: 12.0 mg/kg/injection, schedule: Q01DX009 (ip), vehicle: Klucel (hydroxypropylcellulose) (HPC)",115 % of control
O=C1N[C@@H]([C@H]2CC[C@H](Cl)CN2)C(=O)N[C@H]1[C@H]1CC[C@H](Cl)CN1,T/C,"dose: 0.25 mg/kg/injection, schedule: Q01DX005 (ip), vehicle: saline",99 % of control
same,T/C,"dose: 0.25 mg/kg/injection, schedule: Q01DX005 (iv), vehicle: saline",105 % of control
same,T/C,"dose: 0.25 mg/kg/injection, schedule: Q01DX009 (ip), vehicle: saline",107 % of control
same,T/C,"dose: 0.5 mg/kg/injection, schedule: Q01DX005 (ip), vehicle: saline",100 % of control
same,T/C,"dose: 0.5 mg/kg/injection, schedule: Q01DX005 (iv), vehicle: saline",95 % of control
same,T/C,"dose: 0.5 mg/kg/injection, schedule: Q01DX005 (oral), vehicle: saline",96 % of control
same,T/C,"dose: 0.5 mg/kg/injection, schedule: Q04DX003 (ip), vehicle: saline",97 % of control
same,T/C,"dose: 1.0 mg/kg/injection, schedule: Q01DX005 (ip), vehicle: saline",124 % of control
same,T/C,"dose: 1.0 mg/kg/injection, schedule: Q01DX005 (iv), vehicle: saline",99 % of control
same,T/C,"dose: 1.0 mg/kg/injection, schedule: Q01DX005 (oral), vehicle: saline",99 % of control
same,T/C,"dose: 1.0 mg/kg/injection, schedule: Q04DX003 (ip), vehicle: saline",103 % of control
same,T/C,"dose: 2.0 mg/kg/injection, schedule: Q01DX005 (iv), vehicle: saline",108 % of control
same,T/C,"dose: 2.0 mg/kg/injection, schedule: Q01DX005 (oral), vehicle: saline",115 % of control
same,T/C,"dose: 2.0 mg/kg/injection, schedule: Q04DX003 (ip), vehicle: saline",108 % of control
same,T/C,"dose: 4.0 mg/kg/injection, schedule: Q01DX005 (ip), vehicle: saline",183 % of control
same,T/C,"dose: 4.0 mg/kg/injection, schedule: Q01DX005 (iv), vehicle: saline",120 % of control
same,T/C,"dose: 4.0 mg/kg/injection, schedule: Q01DX005 (oral), vehicle: saline",110 % of control
same,T/C,"dose: 4.0 mg/kg/injection, schedule: Q04DX003 (ip), vehicle: saline",112 % of control
CCOC(=O)Nc1cc2c(c(N)n1)N=C(c1ccc3ccccc3c1)CN2,T/C,"dose: 0.5 mg/kg/injection, schedule: Q01DX009 (ip), vehicle: saline with Tween-80",97 % of control
same,T/C,"dose: 1.0 mg/kg/injection, schedule: Q01DX009 (ip), vehicle: saline with Tween-80",110 % of control
same,T/C,"dose: 1.44 mg/kg/injection, schedule: Q01DX009 (ip), vehicle: saline with Tween-80",101 % of control
same,T/C,"dose: 2.0 mg/kg/injection, schedule: Q01DX009 (ip), vehicle: saline with Tween-80",113 % of control and 116 % of control
same,T/C,"dose: 2.4 mg/kg/injection, schedule: Q01DX009 (ip), vehicle: saline with Tween-80",106 % of control
same,T/C,"dose: 4.0 mg/kg/injection, schedule: Q01DX009 (ip), vehicle: saline with Tween-80",109 % of control and 122 % of control and 107 % of control
same,T/C,"dose: 6.67 mg/kg/injection, schedule: Q01DX009 (ip), vehicle: saline with Tween-80",113 % of control
same,T/C,"dose: 8.0 mg/kg/injection, schedule: Q01DX009 (ip), vehicle: saline with Tween-80",119 % of control
same,T/C,"dose: 11.12 mg/kg/injection, schedule: Q01DX009 (ip), vehicle: saline with Tween-80",119 % of control
Oc1cc(O)cc(/C=C/c2ccc(O)c(O)c2)c1,T/C,"dose: 6.25 mg/kg/injection, schedule: Q01DX009 (ip), vehicle: DMSO",118 % of control
same,T/C,"dose: 12.5 mg/kg/injection, schedule: Q01DX009 (ip), vehicle: DMSO",111 % of control
same,T/C,"dose: 50.0 mg/kg/injection, schedule: Q01DX009 (ip), vehicle: DMSO",117 % of control
same,T/C,"dose: 100.0 mg/kg/injection, schedule: Q01DX009 (ip), vehicle: DMSO",113 % of control and 96 % of control
CCC(CC)COC(=O)c1ccccc1C(=O)OCC(CC)CC,T/C,[1],98 % of control
same,T/C,[2],97 % of control and 106 % of control
same,T/C,[3],110 % of control and 90 % of control and 107 % of control
same,T/C,[4],91 % of control and 96 % of control and 103 % of control
same,T/C,[5],89 % of control and 96 % of control and 97 % of control
same,T/C,[6],93 % of control and 97 % of control
same,T/C,[7],106 % of control
same,T/C,[8],104 % of control
Sc1ccccc1-n1c(-c2ccccc2)ccc1-c1ccccc1,T/C,[5],104 % of control
same,T/C,[6],87 % of control
O=C(Oc1ccccc1)c1cc(O)c(O)c(O)c1,T/C,[4],98 % of control
same,T/C,[5],97 % of control
same,T/C,[6],97 % of control
same,T/C,[7],87 % of control
CC(C)(C)OC(=O)NC(Cc1ccc(O)cc1)C(=O)ON1C(=O)CCC1=O (stereo not drawn),T/C,"dose: 100.0 mg/kg/injection, schedule: Q01DX009 (ip), vehicle: Klucel (hydroxypropylcellulose) (HPC)",101 % of control
same,T/C,"dose: 200.0 mg/kg/injection, schedule: Q01DX009 (ip), vehicle: Klucel (hydroxypropylcellulose) (HPC)",96 % of control
CC(Br)C(=O)c1ccc2cc(Br)c3ccccc3c2c1 (stereo not drawn),T/C,[1],98 % of control
same,T/C,[2],100 % of control
same,T/C,[3],90 % of control
O=CC(NC(=O)N(CCF)N=O)C(O)C(O)C(O)CO (stereo not drawn),T/C,"dose: 30.0 mg/kg/injection, schedule: Q01DX001 (ip), vehicle: saline",169 % of control
same,T/C,"dose: 60.0 mg/kg/injection, schedule: Q01DX001 (ip), vehicle: saline",210 % of control
same,T/C,"dose: 120.0 mg/kg/injection, schedule: Q01DX001 (ip), vehicle: saline",204 % of control
CC(CNC(=O)CCOS(C)(=O)=O)NC(=O)CCOS(C)(=O)=O (stereo not drawn),T/C,"dose: 100.0 mg/kg/injection, schedule: Q01DX009 (ip), vehicle: saline",187 % of control
same,T/C,"dose: 200.0 mg/kg/injection, schedule: Q01DX009 (ip), vehicle: saline",177 % of control and 240 % of control
COc1cc(/C=C/[N+](=O)[O-])cc(Br)c1OC,T/C,"dose: 0.75 mg/kg/injection, schedule: Q01DX009 (ip), vehicle: saline with Tween-80",102 % of control
same,T/C,"dose: 1.5 mg/kg/injection, schedule: Q01DX009 (ip), vehicle: saline with Tween-80",112 % of control
same,T/C,"dose: 3.0 mg/kg/injection, schedule: Q01DX009 (ip), vehicle: saline with Tween-80",98 % of control
same,T/C,"dose: 6.0 mg/kg/injection, schedule: Q01DX009 (ip), vehicle: saline with Tween-80",97 % of control
same,T/C,[2],91 % of control
same,T/C,"dose: 12.0 mg/kg/injection, schedule: Q01DX009 (ip), vehicle: saline with Tween-80",93 % of control
Nc1nc(Cl)c2ncn(C3OC(CO)C(O)C3O)c2n1 (stereo not drawn),T/C,[6],98 % of control
same,T/C,[7],100 % of control
same,T/C,[8],101 % of control
CC(Oc1ccccc1-c1ccccc1)C(=O)N(C)C (stereo not drawn),T/C,[3],95 % of control
same,T/C,[4],100 % of control
same,T/C,[5],95 % of control
same,T/C,[6],98 % of control
same,T/C,[7],106 % of control
same,T/C,[8],100 % of control
[N-]=[N+]=CC(=O)CCC(NC(=O)OCc1ccccc1)C(=O)OCc1ccccc1 (stereo not drawn),T/C,"dose: 25.0 mg/kg/injection, schedule: Q01DX009 (ip), vehicle: Klucel (hydroxypropylcellulose) (HPC)",93 % of control
same,T/C,"dose: 50.0 mg/kg/injection, schedule: Q01DX009 (ip), vehicle: Klucel (hydroxypropylcellulose) (HPC)",96 % of control
[N-]=[N+]=CC(=O)CCC(=O)C=[N+]=[N-],T/C,"dose: 1.56 mg/kg/injection, schedule: Q01DX009 (ip), vehicle: DMSO",124 % of control
CCN(CC)CCOC(=O)Cc1cccc2c(=O)cc(-c3ccccc3)oc12,T/C,"dose: 12.5 mg/kg/injection, schedule: Q01DX009 (ip), vehicle: saline",97 % of control and 103 % of control
same,T/C,"dose: 25.0 mg/kg/injection, schedule: Q01DX009 (ip), vehicle: saline",115 % of control and 101 % of control
same,T/C,"dose: 50.0 mg/kg/injection, schedule: Q01DX009 (ip), vehicle: saline",109 % of control and 99 % of control
O=c1cc(-c2ccc3ccccc3n2)oc2ccc(Cl)cc12,T/C,"dose: 10.0 mg/kg/injection, schedule: Q01DX009 (ip), vehicle: saline with Tween-80",99 % of control
same,T/C,"dose: 20.0 mg/kg/injection, schedule: Q01DX009 (ip), vehicle: saline with Tween-80",101 % of control
same,T/C,"dose: 40.0 mg/kg/injection, schedule: Q01DX009 (ip), vehicle: saline with Tween-80",95 % of control
COC1=C(OC)C(=O)C(Sc2ccc3ccccc3c2)=CC1=O,T/C,[2],86 % of control and 97 % of control
same,T/C,[3],95 % of control
same,T/C,[4],96 % of control
same,T/C,[5],86 % of control
